Experiments:
[1] = Antiproliferative activity against human NCI-H196 cells incubated for 72 hrs; assay type: functional, cell-based; settings: NCI-H196, 72 h
[2] = Toxicity in BALB/c nude mouse xenografted with human NCI-H446 cells assessed as body weight change at 20 mg/kg, ip for 21 days; assay type: organism-based; settings: in vivo, 504 h, time 21 day
[3] = Antiproliferative activity against human BEAS-2B cells incubated for 72 hrs; assay type: toxicity, cell-based
[4] = tested on: NCI-H209; experiment: Antiproliferative activity against human NCI-H209 cells incubated for 72 hrs; assay type: functional, cell-based; settings: NCI-H209, 72 h
[5] = tested on: NCI-H1048; experiment: Antiproliferative activity against human NCI-H1048 cells incubated for 72 hrs; assay type: functional, cell-based; settings: NCI-H1048, 72 h
[6] = tested on: NCI-H146; experiment: Antiproliferative activity against human NCI-H146 cells incubated for 72 hrs; assay type: functional, cell-based; settings: NCI-H146, 72 h
[7] = tested on: SHP77; experiment: Antiproliferative activity against human SHP77 cells incubated for 72 hrs; assay type: functional, cell-based; settings: SHP77, 72 h
[8] = tested on: NCI-H446; experiment: Induction of early apoptosis in human NCI-H446 cells incubated for 48 hrs by Annexin V-FITC/PI staining based flow cytometry; assay type: functional, cell-based; settings: dose 1-8 µM
[9] = tested on: NCI-H446; experiment: Antiproliferative activity against human NCI-H446 cells incubated for 72 hrs; assay type: functional, cell-based; settings: NCI-H446, 72 h
[10] = Antiproliferative activity against human L02 cells incubated for 72 hrs; assay type: toxicity, cell-based
[11] = tested on: NCI-H1048; experiment: Induction of early apoptosis in human NCI-H1048 cells incubated for 48 hrs by Annexin V-FITC/PI staining based flow cytometry; assay type: functional, cell-based; settings: dose 1-8 µM
[12] = tested on: NCI-H446; experiment: Antitumor activity against human NCI-H446 cells xenografted in BALB/c nude mouse at 20 mg/kg, ip for 21 days relative to control; assay type: functional; settings: NCI-H446, 504 h, time 21 day, read-out: TGI
[13] = tested on: NCI-H446; experiment: Inhibition of cell invasion in human NCI-H446 cells incubated for 24 hrs by transwell assay; assay type: functional, cell-based
[14] = tested on: NCI-H82; experiment: Antiproliferative activity against human NCI-H82 cells incubated for 72 hrs; assay type: functional, cell-based; settings: NCI-H82, 72 h
[15] = tested on: NCI-H1048; experiment: Inhibition of cell invasion in human NCI-H1048 cells incubated for 24 hrs by transwell assay; assay type: functional, cell-based

Compound	IC50 [4]	IC50 [5]	IC50 [6]	IC50 [9]	IC50 [14]	IC50 [1]	Activity [2]	IC50 at 72 h [3]	IC50 [7]	Activity [8]	IC50 at 72 h [10]	Activity [11]	inhibition in vivo at 20 mg/kg [12]	inhibition [13]	inhibition [15]
COc1cc([C@@H]2c3cc4c(cc3[C@@H](O[C@@H]3O[C@@H]5CO[C@@H](C)O[C@H]5[C@H](O)[C@H]3O)[C@H]3COC(=O)[C@H]23)OCO4)cc(OC)c1O [ETOPOSIDE]	> 100 µM	1.52 µM	10.6 µM	2.1 µM	8.39 µM	24.1 µM	Toxic	6.19 µM	26.3 µM	Not active; Exhibited Minimal Impact	15.9 µM	Not active; Exhibited Minimal Impact	68.7%	Dose-dependent-effect	Dose-dependent-effect
COCC1CCN(Cc2cc3c(cc2-c2cc4ccc5c(c4cn2)OCO5)OCO3)CC1	53.1 µM	44.1 µM	37.1 µM	39.3 µM	55.6 µM	45.7 µM		28.2 µM	38.5 µM		48.4 µM				
FC(F)(F)C1CCN(Cc2cc3c(cc2-c2cc4ccc5c(c4cn2)OCO5)OCO3)CC1	> 100 µM	> 100 µM	39.8 µM	15.5 µM	> 100 µM	34.5 µM		> 100 µM	25.4 µM		56.3 µM				

Second part, led by results:

IC50 [4]	IC50 [5]	IC50 [6]	IC50 [9]	IC50 [14]	Compound	IC50 [1]	Activity [2]	IC50 at 72 h [3]	IC50 [7]	Activity [8]	IC50 at 72 h [10]	Activity [11]	inhibition in vivo at 20 mg/kg [12]	inhibition [13]	inhibition [15]
72.7 µM	35.7 µM	20.2 µM	38.9 µM	> 100 µM	CC1(O)CCN(Cc2cc3c(cc2-c2cc4ccc5c(c4cn2)OCO5)OCO3)C1 (stereo unspecified)	46.4 µM		39.7 µM	32.4 µM		> 100 µM				
> 100 µM	> 100 µM	> 100 µM	55.7 µM	> 100 µM	CC1(C)CCN(Cc2cc3c(cc2-c2cc4ccc5c(c4cn2)OCO5)OCO3)CC1	> 100 µM		> 100 µM	> 100 µM		> 100 µM				

From ChEMBL document CHEMBL6153083, “Synthesis, Structural Modification, and Antismall Cell Lung Cancer Activity of 3-Arylisoquinolines with Dual Inhibitory Activity on Topoisomerase I and II” (J Med Chem, 2025)
